# Marks after values point to notes of the source that are not given here.
# Assays:
# [1] = Phase I clinical trial, cutaneous phototoxicity of topical hypericin with visible light; format: in vivo, human
# MF lesions = assay: Phase II study, topical hypericin and visible light, MF arm; format: in vivo, human; conditions: 6 weeks
# Experimental: (§1) This study is designed to evaluate the safety and efficacy of topical hypericin in concentrations of 0.1% and 0.25% under occlusion for 24 hours followed by administration of visible light in doses ranging from 8 to 20 J/cm^2 twice weekly for 6 weeks for the treatment of psoriasis or MF. One of the four centers involved in the study administered topical hypericin in concentrations of 0.05 and 0.1%. The concentration of hypericin and the dose of light were based upon the Phase I study described above with normal volunteers.
# A standardized topical amount of hypericin in either ointment or liquid formula was applied to defined plaques on the skin of volunteer subjects. […]
# (§2) Skin reactions were evaluated each week immediately after irradiation and again at 48 and 72 hours later. The sites of irradiation were examined twice per week thereafter and all changes; e.g., erythema, edema, desquamation, pigmentation, etc, were recorded.
# Lesion responses in this study were scored in accordance with the following scales at each patient evaluation:lesional CR=complete regression of the treated lesion; PR=>50% decrease in lesional area during treatment; Stable=<50% decrease in size or <25% increase in size during therapy; Progression=>25% increase in size during therapy. […] If so, the patient was scored as a responder for that lesion. […]
# psoriasis lesions = assay: Phase II study, topical hypericin and visible light, psoriasis arm; format: in vivo, human; conditions: All Ointment + Liquid, 6 weeks
# Experimental: as §1
# A standardized topical amount of hypericin in either ointment or liquid formula was applied to defined plaques on the skin of volunteer subjects. The amount of hypericin in each topical application was as follows: 0.05%=0.005 mg/cm^2; 0.1%=0.01 mg/ cm^2, and 0.25%=0.025 mg/ cm^2.
# Each hypericin treatment or placebo was applied twice weekly for a period of 24 hours prior to irradiation. Each application site was covered by non-absorbing Webril cotton of equal area and occluded with occlusive tape (Blenderm, 3M); excess drug was removed prior to irradiation (24 hours post drug application).
# Irradiation was undertaken using visible fluorescent bulbs (590-650 nm) (GE cool white fluorescent bulbs, 20-watt fluorescent tubes housed in a reflecting bank) for a period not to exceed 15 minutes (total number of joules approximately 5/cm^2). The light dose was administered twice weekly, separated by at least one day.
# The light dose was increased once weekly by 1 joule/cm^2 until symptoms or signs of phototoxicity appeared. At that point, the dose could either be maintained or reduced by 1 joule/cm^2 if phototoxicity was pronounced (skin erythema of greater than 1+[minimal visible erythema).
# as §2
# Lesion responses in this study were scored in accordance with the following scales at each patient evaluation:lesional CR=complete regression of the treated lesion; PR=>50% decrease in lesional area during treatment; Stable=<50% decrease in size or <25% increase in size during therapy; Progression=>25% increase in size during therapy. The success/failure criterion for each lesion on each patient was whether there was a 50% or better improvement in the lesion area at the end of the 6-week treatment cycle. If so, the patient was scored as a responder for that lesion. Table 1 indicates the rating criteria for patient response.
# All patients receiving treatment for MF were treated with the ointment preparation. For patients with psoriasis, 5 patients were treated with 0.1% and 0.25% aqueous solutions of hypericin in dimethyl sulfoxide (DMSO) and 6 patients were treated with the USP
# Hydrophilic Ointment preparations. The liquid dosage form consisted of dissolving either 0.2 mL or 0.5 mL hypericin stock solution (polyethylene glycol solution) in 44.8 or 44.5 mL of 50% DMSO/water and mixing with a magnetic stirrer.
# The response or lack of response, of each lesion treated with either placebo ointment or with a hypericin-containing ointment was analyzed as a binomial (i.e., yes/no) distribution.
# This was an appropriate analysis for response which was quantal in nature. For the null hypothesis (no treatment response) it was assumed that spontaneous resolution of the lesion by the protocol specified 6-week time point would not occur. That is, the true probability of spontaneous lesion regression (defined as <50% of its baseline size for CTCL and to <50% of its combined baseline score for psoriasis lesions) was taken as zero (0%). For the MF analysis, a repeated measures logistic regression was employed to obtain p-values. For analysis of the psoriasis data, a likelihood ratio chi-square test was employed.
# [2] = Phase II study, adverse events; format: in vivo, human
# Experimental: as §2
# [3] = cited from earlier work
compound,measurement,setting,value
"Cc1cc(O)c2c(=O)c3c(O)cc(O)c4c5c(O)cc(O)c6c(=O)c7c(O)cc(C)c8c1c2c(c34)c(c78)c65 [Hypericin, 4,5,7,4′,5′,7′ -dimethyl-meso naphthodiantbrone]",Cutaneous reactions at 0.02%,"[1]; 0.02% hypericin, any dose of light",no cutaneous reactions
same,Cutaneous photosensitivity at 0.1% and 0.5%,"[1]; topical under occlusion, visible light 24 hours after application",causes cutaneous photosensitivity
same,"Percent Responders, Hypericin 0.1% Dose (MF)",MF lesions; ointment 0.1%,41.7%
same,"Percent Responders, Hypericin 0.25% Dose (MF)",MF lesions; ointment 0.25%,55.6%
same,"Percent Responders, Response to 0.05% Dose (psoriasis)",psoriasis lesions; 0.05%,9.1%
same,"Responders/Total, Response to 0.05% Dose (psoriasis)",psoriasis lesions; 0.05%,1/11
same,"Percent Responders, Hypericin 0.1% Dose (psoriasis)",psoriasis lesions; 0.1%,"36.4^a,b %"
same,"Responders/Total, Hypericin 0.1% Dose (psoriasis)",psoriasis lesions; 0.1%,4/11
same,"Percent Responders, Hypericin 0.1% Dose (psoriasis)","psoriasis lesions; 0.1%, listed as hypericin",36.4%
same,"Percent Responders, Hypericin 0.25% Dose (psoriasis)",psoriasis lesions; 0.25%,45.4%^b
same,"Responders/Total, Hypericin 0.25% Dose (psoriasis)",psoriasis lesions; 0.25%,5/11
same,"Percent Responders, Hypericin 0.25% Dose (psoriasis)","psoriasis lesions; 0.25%, listed as hypericin",45.4%
same,"Percent Responders, All Hypericin Responders (psoriasis)",psoriasis lesions; any dose,54.6%^b
same,"Responders/Total, All Hypericin Responders (psoriasis)",psoriasis lesions; any dose,6/11
same,Deaths or serious adverse events / overall safety,[2]; MF and psoriasis patients,No deaths or serious adverse events
same,Reported adverse events,[2]; at the application site after visible light,"mild to moderate burning, itching, erythema, and pruritus at the application site"
same,half life,[3]; in vivo,20 to 24 h
same,bioavailable following oral administration,[3]; oral,about 20%
